The text below walks through data of US20240158446A1, “CYCLIC COMPOUND HAVING SELECTIVE INHIBITORY ACTION ON KRAS OVER HRAS AND NRAS” (CHUGAI SEIYAKU KABUSHIKI KAISHA, priority 2021, published 2024).

Assay [1] addresses GDP-bound HRAS wild-type protein (Homo sapiens, UniProt P01112). Put plainly: Binding to HRAS by surface plasmon resonance (SPR), Single Cycle Kinetics. Conditions: ratio of KD for GDP-bound HRAS wild-type protein to KD for KRAS, SPR. A general note: Surface plasmon resonance follows binding to a sensor surface in real time, without labels.
Assay [2] relates to human lung cancer strain NCI-H441. Put plainly: cells. The conditions noted are these: NCI-H441, 96 h, read-out: NCI-H441 IC50 (nM), NCI-H441 cell proliferation, 4 days, CellTiter-Glo. For orientation: ATP-based viability assays read luminescence as a measure of living cells.
Assay [3] has as its target GDP-bound NRAS wild-type protein (Homo sapiens, UniProt P01111). Put plainly: Binding to NRAS by surface plasmon resonance (SPR), Single Cycle Kinetics. Conditions: ratio of KD for GDP-bound NRAS wild-type protein to KD for KRAS, SPR.
Assay [4] addresses GDP-bound KRAS wild-type protein (Homo sapiens, UniProt P01116). Put plainly: Binding to KRAS by surface plasmon resonance (SPR), Single Cycle Kinetics. Conditions: SPR, Single Cycle Kinetics, GDP-bound KRAS wild-type protein; read-out: KRAS KD.
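Throughout, for IC50: cell proliferation inhibition after four days measured by CellTiter-Glo.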

Sequence of GDP-bound NRAS wild-type protein (P01111 whole entry): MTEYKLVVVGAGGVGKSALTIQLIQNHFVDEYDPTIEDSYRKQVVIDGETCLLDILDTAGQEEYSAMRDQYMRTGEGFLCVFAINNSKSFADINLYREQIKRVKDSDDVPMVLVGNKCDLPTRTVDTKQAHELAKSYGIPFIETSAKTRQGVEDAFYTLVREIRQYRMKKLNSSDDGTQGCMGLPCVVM
Sequence of GDP-bound HRAS wild-type protein (P01112 whole entry): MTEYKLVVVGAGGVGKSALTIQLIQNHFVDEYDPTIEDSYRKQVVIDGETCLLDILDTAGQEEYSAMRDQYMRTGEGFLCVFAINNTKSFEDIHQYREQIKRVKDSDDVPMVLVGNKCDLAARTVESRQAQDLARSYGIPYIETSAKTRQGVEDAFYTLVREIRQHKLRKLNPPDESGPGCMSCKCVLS
Sequence of GDP-bound KRAS wild-type protein (P01116 whole entry): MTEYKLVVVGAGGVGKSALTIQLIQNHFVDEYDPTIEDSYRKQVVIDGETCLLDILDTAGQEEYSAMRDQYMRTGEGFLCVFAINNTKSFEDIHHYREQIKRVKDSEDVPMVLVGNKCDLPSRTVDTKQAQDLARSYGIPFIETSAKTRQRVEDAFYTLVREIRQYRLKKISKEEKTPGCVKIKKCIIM

With `CCC[C@H]1C(=O)N[C@@H]([C@@H](C)CC)C(=O)N(C)CC(=O)N(C)[C@H]2C/C=C\CCN(C2=O)[C@@H](Cc2ccc(C(F)(F)F)cc2)C(=O)N(C)CC(=O)N[C@@H](CCc2cc(F)c(C(F)(F)F)c(F)c2)C(=O)N2C[C@H](OCC)C[C@H]2C(=O)NC2(CC(C)(C)C2)C(=O)N(C)[C@@H]([C@@H](C)CC)C(=O)N(C)[C@H](C(=O)N(C)C)CC(=O)N1C` [PP1941], in assay [1], the “HRAS/KRAS (KD ratio)” value is “A (a compound having 10 or more and less than 20 is denoted as A)”. Further, the IC50 in assay [2] was found to be 9.2 nM. Also, in assay [3], the “NRAS/KRAS (KD ratio)” value is “A (a compound having 10 or more and less than 20 is denoted as A)”. In addition, the equilibrium dissociation constant (Kd) (as a rule, the constant that tells how readily two partners part at equilibrium) in assay [4] came to 0.17 nM.

With `CCO[C@@H]1C[C@H]2C(=O)N(C)C3(CCC3)C(=O)N(C)[C@@H](C3CCCC3)C(=O)N(C)[C@H](C(=O)N(C)C)CC(=O)N(C)[C@@H](CC)C(=O)N[C@@H]([C@@H](C)CC)C(=O)N3CCC[C@H]3C(=O)N(C)[C@H]3C/C=C\CCN(C3=O)[C@@H](Cc3ccc(C)cc3)C(=O)N(C)CC(=O)N[C@@H](CCc3cc(F)c(C(F)(F)F)c(F)c3)C(=O)N2C1` [PP1785], the “HRAS/KRAS (KD ratio)” value in assay [1] is “A (a compound having 10 or more and less than 20 is denoted as A)”. The IC50 in assay [2] worked out at 6.9 nM. In addition, in assay [3], the “NRAS/KRAS (KD ratio)” value was “A (a compound having 10 or more and less than 20 is denoted as A)”. For the same compound, the Kd in assay [4] is 0.051 nM.

Turning to `CCCOC[C@H]1C(=O)N[C@@H]([C@@H](C)CC)C(=O)N(C)CC(=O)N(C)[C@H]2C/C=C\CCN(C2=O)[C@@H](Cc2ccc(C(F)(F)F)cc2)C(=O)N(C)CC(=O)N[C@@H](CCc2ccc(C(F)(F)F)c(OC)c2)C(=O)N2C[C@@H](C)C[C@H]2C(=O)NC2(CC(C)(C)C2)C(=O)N(C)[C@@H](C2CCCC2)C(=O)N(C)[C@H](C(=O)N(C)CC)CC(=O)N1C` [PP1995], the “HRAS/KRAS (KD ratio)” value in assay [1] was “B (a compound having 3 or more and less than 10 is denoted as B)”. In assay [2], the IC50 was found to be 17.8 nM. Moreover, in assay [3], the “NRAS/KRAS (KD ratio)” value was “A (a compound having 10 or more and less than 20 is denoted as A)”. Further, the Kd in assay [4] turned out to be 0.21 nM.

`CC[C@H](C)[C@@H]1NC(=O)[C@H](CC2CCC2)N(C)C(=O)C[C@@H](C(=O)N(C)C)N(C)C(=O)[C@H](C2CCCC2)N(C)C(=O)C2(CC(C)(C)C2)NC(=O)[C@@H]2CCCN2C(=O)[C@H](CCc2cc(F)c(C(F)(F)F)c(F)c2)NC(=O)CN(C)C(=O)[C@H](Cc2ccc(C(F)(F)F)cc2)N2CC/C=C\C[C@@H](C2=O)N(C)C(=O)CN(C)C1=O` [PP1728]: the “HRAS/KRAS (KD ratio)” value in assay [1] was “A (a compound having 10 or more and less than 20 is denoted as A)”. Besides, the IC50 in assay [2] came out at 18.3 nM. In assay [3], the “NRAS/KRAS (KD ratio)” value was “A (a compound having 10 or more and less than 20 is denoted as A)”. The dissociation constant (Kd) in assay [4] was determined as 0.16 nM.

Regarding `CCO[C@@H]1C[C@H]2C(=O)NC3(CC(C)(C)C3)C(=O)N(C)[C@@H](C3CCCC3)C(=O)N(C)[C@H](C(=O)N(C)C)CC(=O)N(C)[C@@H](CC(F)(F)F)C(=O)N[C@@H]([C@@H](C)CC)C(=O)N(C)CC(=O)N(C)[C@H]3C/C=C\CCN(C3=O)[C@@H](Cc3ccc(C(F)(F)F)cc3)C(=O)N(C)CC(=O)N[C@@H](CCc3cc(F)c(C(F)(F)F)c(F)c3)C(=O)N2C1` [PP1644], the “HRAS/KRAS (KD ratio)” value in assay [1] was “A (a compound having 10 or more and less than 20 is denoted as A)”. Also, in assay [2], the IC50 is 2.7 nM. The “NRAS/KRAS (KD ratio)” value in assay [3] was “A (a compound having 10 or more and less than 20 is denoted as A)”. The Kd in assay [4] stood at 0.038 nM.

In the case of `C#CC[C@H]1C(=O)N[C@@H]([C@@H](C)CC)C(=O)N(C)CC(=O)N(C)[C@H]2C/C=C\CCN(C2=O)[C@@H](Cc2ccc(C(F)(F)F)cc2)C(=O)N(C)CC(=O)N[C@@H](CCc2ccc(C(F)(F)F)c(OC)c2)C(=O)N2C[C@H](OCC)C[C@H]2C(=O)NC2(CC(C)(C)C2)C(=O)N(C)[C@@H](C2CCCC2)C(=O)N(C)[C@H](C(=O)N(C)C)CC(=O)N1C` [PP1677], the “HRAS/KRAS (KD ratio)” value in assay [1] is “A (a compound having 10 or more and less than 20 is denoted as A)”. Also, the IC50 in assay [2] worked out at 3.4 nM. In assay [3], the “NRAS/KRAS (KD ratio)” value is “A (a compound having 10 or more and less than 20 is denoted as A)”. The Kd in assay [4] came to 0.042 nM.

With `CCO[C@@H]1C[C@H]2C(=O)NC3(CCC3)C(=O)N(C)[C@@H](C3CCCC3)C(=O)N(C)[C@H](C3CCC3)CC(=O)N(C)[C@@H](CC3CC3)C(=O)N[C@@H]([C@@H](C)CC)C(=O)N(C)CC(=O)N(C)[C@H]3C/C=C\CCN(C3=O)[C@@H](Cc3ccc(C(F)(F)F)cc3)C(=O)N(C)CC(=O)N[C@@H](CCc3cc(F)c(C(F)(F)F)c(F)c3)C(=O)N2C1` [PP1637], the “HRAS/KRAS (KD ratio)” value in assay [1] was “A (a compound having 10 or more and less than 20 is denoted as A)”. Further, the IC50 in assay [2] stood at 32.5 nM. For the same compound, in assay [3], the “NRAS/KRAS (KD ratio)” value is “A (a compound having 10 or more and less than 20 is denoted as A)”. For the same compound, the Kd in assay [4] was 0.32 nM.

Take `CCCN(C)C(=O)[C@@H]1CC(=O)N(C)[C@@H](CC)C(=O)N[C@@H]([C@@H](C)CC)C(=O)N(C)CC(=O)N(C)[C@H]2C/C=C\CCN(C2=O)[C@@H](Cc2ccc(C(F)(F)F)cc2)C(=O)N(C)CC(=O)N[C@@H](CCc2cc(F)c(C(F)(F)F)c(F)c2)C(=O)N2C[C@H](OCC)C[C@H]2C(=O)NC2(CCC2)C(=O)N(C)[C@@H](C2CCCC2)C(=O)N1C` [PP1699]: the “HRAS/KRAS (KD ratio)” value in assay [1] was “A (a compound having 10 or more and less than 20 is denoted as A)”. Further, the IC50 in assay [2] is 2.5 nM. In addition, in assay [3], the “NRAS/KRAS (KD ratio)” value is “A (a compound having 10 or more and less than 20 is denoted as A)”. Besides, the equilibrium dissociation constant (Kd) in assay [4] came out at 0.095 nM.

With `CCO[C@@H]1C[C@H]2C(=O)NC3(CC(F)(F)C3)C(=O)N(C)[C@@H](C3CCCC3)C(=O)N(C)[C@H](C3CCC3)CC(=O)N(C)[C@@H](CC3CC3)C(=O)N[C@@H]([C@@H](C)CC)C(=O)N(C)CC(=O)N(C)[C@H]3C/C=C\CCN(C3=O)[C@@H](Cc3ccc(C(F)(F)F)cc3)C(=O)N(C)CC(=O)N[C@@H](CCc3cc(F)c(C(F)(F)F)c(F)c3)C(=O)N2C1` [PP1639], in assay [1], the “HRAS/KRAS (KD ratio)” value is “A (a compound having 10 or more and less than 20 is denoted as A)”. For the same compound, the IC50 in assay [2] amounted to 44.8 nM. Moreover, the “NRAS/KRAS (KD ratio)” value in assay [3] is “A (a compound having 10 or more and less than 20 is denoted as A)”. Further, the dissociation constant (Kd) in assay [4] stood at 0.68 nM.

`CC[C@H](C)[C@@H]1NC(=O)[C@H](CC(C)C)N(C)C(=O)C[C@@H](C(=O)N(C)CC)N(C)C(=O)[C@H](C2CCCC2)N(C)C(=O)C2(CCC2)NC(=O)[C@@H]2C[C@@H](C)CN2C(=O)[C@H](CCc2ccc(C(F)(F)F)c(OC)c2)NC(=O)CN(C)C(=O)[C@H](Cc2ccc(C)cc2)N2CC/C=C\C[C@@H](C2=O)N(C)C(=O)CN(C)C1=O` [PP1907]: the “HRAS/KRAS (KD ratio)” value in assay [1] was “A (a compound having 10 or more and less than 20 is denoted as A)”. Further, the IC50 in assay [2] was determined as 23.6 nM. Moreover, the “NRAS/KRAS (KD ratio)” value in assay [3] is “AA (a compound having 20 or more is denoted as AA)”. For the same compound, the Kd in assay [4] was found to be 0.17 nM.
